Columns and labels:
Type in all cases: cell-based
[1] = target: T1, human TLR8 (Homo sapiens, UniProt Q9NR97); experiment: TLR8 inhibition reporter assay (HEK-Blue cells, SEAP reporter, R848 stimulation); conditions: HEK-Blue cells overexpressing human TLR8, SEAP reporter, R848 15.9 μM
T1 construct: host or cells: HEK-Blue cells
T1 sequence (Q9NR97 27-1041): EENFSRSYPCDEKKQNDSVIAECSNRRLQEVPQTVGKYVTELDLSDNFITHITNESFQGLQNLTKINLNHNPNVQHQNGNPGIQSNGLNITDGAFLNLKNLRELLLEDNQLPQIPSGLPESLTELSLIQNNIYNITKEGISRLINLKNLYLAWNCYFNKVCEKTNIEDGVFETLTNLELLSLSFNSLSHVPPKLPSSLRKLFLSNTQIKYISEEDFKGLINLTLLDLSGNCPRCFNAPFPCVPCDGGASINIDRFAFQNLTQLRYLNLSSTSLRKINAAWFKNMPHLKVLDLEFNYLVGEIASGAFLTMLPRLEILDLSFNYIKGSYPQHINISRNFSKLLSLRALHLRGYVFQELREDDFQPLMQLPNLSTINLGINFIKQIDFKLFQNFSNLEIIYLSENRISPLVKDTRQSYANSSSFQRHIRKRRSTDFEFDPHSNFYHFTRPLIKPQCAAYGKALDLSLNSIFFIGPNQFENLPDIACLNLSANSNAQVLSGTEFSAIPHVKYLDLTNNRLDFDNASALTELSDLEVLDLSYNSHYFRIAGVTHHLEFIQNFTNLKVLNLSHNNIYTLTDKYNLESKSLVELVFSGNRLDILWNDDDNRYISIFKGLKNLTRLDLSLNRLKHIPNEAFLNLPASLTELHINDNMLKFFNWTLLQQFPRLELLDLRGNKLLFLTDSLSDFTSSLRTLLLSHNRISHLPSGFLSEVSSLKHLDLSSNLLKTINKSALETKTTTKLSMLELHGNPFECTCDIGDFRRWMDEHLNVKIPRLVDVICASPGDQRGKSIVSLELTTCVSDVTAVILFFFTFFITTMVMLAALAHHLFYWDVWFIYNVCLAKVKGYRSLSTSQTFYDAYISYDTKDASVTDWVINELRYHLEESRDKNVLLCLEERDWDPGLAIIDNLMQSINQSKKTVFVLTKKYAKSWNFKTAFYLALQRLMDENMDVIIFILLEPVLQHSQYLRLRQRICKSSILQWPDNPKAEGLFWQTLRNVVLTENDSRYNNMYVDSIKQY
Procedure: (§1) TLR7/8/9 Inhibition Reporter Assays
(§2) HEK-Blue™-cells (Invivogen) overexpressing human TLR7, TLR8 or TLR9 receptors were used for screening inhibitors of these receptors using an inducible SEAP (secreted embryonic alkaline phosphatase) reporter gene under the control of the IFN-β minimal promoter fused to five NF-κB and AP-1-binding sites. Briefly, cells are seeded into Greiner 384 well plates (15000 cells per well for TLR7, 20,000 for TLR8 and 25,000 for TLR9) and then treated with test compounds in DMSO to yield a final dose response concentration range of 0.05 nM-50 μM. After a 30 minute compound pre-treatment al room temperature, the cells are then stimulated with a TLR7 ligand (gardiquimod at a final concentration of 7.5 μM), TLR8 ligand (R848 at a final concentration of 15.9 μM) or TLR9 ligand (ODN2006 at a final concentration of 5 nM) to activate NF-κB and AP-1 which induce the production of SEAP. After a 22 hour incubation at 37° C., 5% CO2, SEAP levels are determined with the addition of HEK-Blue™ Detection reagent (Invivogen), a cell culture medium that allows for detection of SEAP, according to manufacturer's specifications. The percent inhibition is determined as the % reduction in the HEK-Blue signal present in wells treated with agonist plus DMSO alone compared to wells treated with a known inhibitor.

[2] = target: T2, human TLR9 (Homo sapiens, UniProt Q9NR96); experiment: TLR9 inhibition reporter assay (HEK-Blue cells, SEAP reporter, ODN2006 stimulation); conditions: HEK-Blue cells overexpressing human TLR9, SEAP reporter, ODN2006 5 nM
T2 construct: host or cells: HEK-Blue cells
T2 sequence (Q9NR96 26-1032): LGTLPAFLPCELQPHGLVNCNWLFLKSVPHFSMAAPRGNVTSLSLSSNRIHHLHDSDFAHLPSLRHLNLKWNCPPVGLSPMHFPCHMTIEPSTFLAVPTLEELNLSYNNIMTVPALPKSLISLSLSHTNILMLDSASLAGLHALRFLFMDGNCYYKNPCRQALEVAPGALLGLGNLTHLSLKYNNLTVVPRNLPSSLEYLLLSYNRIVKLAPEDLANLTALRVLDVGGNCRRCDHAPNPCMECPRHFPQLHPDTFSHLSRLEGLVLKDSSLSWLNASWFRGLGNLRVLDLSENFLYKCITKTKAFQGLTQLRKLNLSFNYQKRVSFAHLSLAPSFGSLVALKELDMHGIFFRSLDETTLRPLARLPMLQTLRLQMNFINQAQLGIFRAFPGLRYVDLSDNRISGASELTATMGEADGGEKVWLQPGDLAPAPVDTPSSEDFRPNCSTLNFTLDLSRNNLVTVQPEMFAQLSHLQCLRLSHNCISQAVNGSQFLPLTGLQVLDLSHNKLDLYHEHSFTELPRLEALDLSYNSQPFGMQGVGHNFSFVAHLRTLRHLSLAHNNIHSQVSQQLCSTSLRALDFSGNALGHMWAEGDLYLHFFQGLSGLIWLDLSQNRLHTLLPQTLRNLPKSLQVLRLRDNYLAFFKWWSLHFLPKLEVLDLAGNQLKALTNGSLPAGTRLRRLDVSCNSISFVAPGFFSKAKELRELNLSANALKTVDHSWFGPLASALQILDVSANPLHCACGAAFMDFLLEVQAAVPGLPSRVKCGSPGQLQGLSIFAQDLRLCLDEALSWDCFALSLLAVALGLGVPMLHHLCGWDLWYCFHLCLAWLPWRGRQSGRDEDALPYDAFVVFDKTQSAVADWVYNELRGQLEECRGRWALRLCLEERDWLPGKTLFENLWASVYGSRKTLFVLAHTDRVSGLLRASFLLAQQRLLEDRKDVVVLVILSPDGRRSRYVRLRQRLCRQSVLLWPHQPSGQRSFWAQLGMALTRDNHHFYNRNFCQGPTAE
Procedure: as §1, §2

[3] = target: T3, human TLR7 (Homo sapiens, UniProt Q9NYK1); experiment: TLR7 inhibition reporter assay (HEK-Blue cells, SEAP reporter, gardiquimod stimulation); conditions: HEK-Blue cells overexpressing human TLR7, SEAP reporter, gardiquimod 7.5 μM
T3 construct: host or cells: HEK-Blue cells
T3 sequence (Q9NYK1 27-1049): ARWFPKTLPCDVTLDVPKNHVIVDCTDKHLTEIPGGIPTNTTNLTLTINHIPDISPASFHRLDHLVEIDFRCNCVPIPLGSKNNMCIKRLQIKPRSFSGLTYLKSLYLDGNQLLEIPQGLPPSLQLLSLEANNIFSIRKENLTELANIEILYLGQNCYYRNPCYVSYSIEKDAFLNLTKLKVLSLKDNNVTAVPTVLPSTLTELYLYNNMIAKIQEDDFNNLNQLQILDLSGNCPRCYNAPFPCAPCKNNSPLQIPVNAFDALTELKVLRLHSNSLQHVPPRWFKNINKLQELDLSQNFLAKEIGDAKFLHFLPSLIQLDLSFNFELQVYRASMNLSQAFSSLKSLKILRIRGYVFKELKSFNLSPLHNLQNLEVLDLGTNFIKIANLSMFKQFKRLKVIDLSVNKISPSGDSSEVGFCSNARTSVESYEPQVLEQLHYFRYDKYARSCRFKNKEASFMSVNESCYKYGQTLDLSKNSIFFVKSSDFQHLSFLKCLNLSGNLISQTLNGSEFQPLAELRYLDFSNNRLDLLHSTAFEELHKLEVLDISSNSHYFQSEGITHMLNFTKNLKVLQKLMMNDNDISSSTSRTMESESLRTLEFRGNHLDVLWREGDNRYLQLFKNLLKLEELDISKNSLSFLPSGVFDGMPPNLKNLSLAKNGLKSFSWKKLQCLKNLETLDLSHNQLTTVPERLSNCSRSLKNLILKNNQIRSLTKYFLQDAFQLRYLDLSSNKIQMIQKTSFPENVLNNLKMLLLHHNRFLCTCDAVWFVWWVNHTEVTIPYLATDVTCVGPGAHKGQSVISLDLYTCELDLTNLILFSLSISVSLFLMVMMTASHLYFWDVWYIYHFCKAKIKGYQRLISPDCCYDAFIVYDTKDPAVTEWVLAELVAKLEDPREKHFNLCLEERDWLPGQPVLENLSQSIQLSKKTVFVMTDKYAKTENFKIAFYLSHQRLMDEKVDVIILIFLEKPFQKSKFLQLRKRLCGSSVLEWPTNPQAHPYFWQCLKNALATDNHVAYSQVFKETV
Procedure: as §1, §2

Structure (SMILES) | IC50 [1] [nM] | IC50 [2] [nM] | IC50 [3] [nM]
COc1cc(-c2[nH]c3ccc(C4CCC(N5CC(O)C5)CC4)cc3c2C(C)C)cn2ncnc12 (single isomer, unassigned) [Example 22] | 3.9 | 1200 | 0.85
Cc1c(-c2[nH]c3ccc(C4CCC(N5CC(CO)(CO)C5)CC4)cc3c2C(C)C)cn2ncnc2c1C (single isomer, unassigned) [Example 26] | 0.84 | 260 | 0.92
Cc1cc(-c2[nH]c3ccc(C4CCC(N5CCN(C)CC5)CC4)cc3c2C(C)C)cc(C)n1 (single isomer, unassigned) [Example 36] | 3.9 | 417 | 2
Cc1cc(-c2[nH]c3ccc(C4CCC(N5CCN(C)CC5)CC4)cc3c2C(C)C)cc(C)n1 (single isomer, unassigned) [Example 37] | 56 | 583 | 29
COCCN1CCN(C2CCC(c3ccc4[nH]c(-c5cc(OC)c6ncnn6c5)c(C(C)C)c4c3)CC2)CC1 (single isomer, unassigned) [Example 38] | 2.1 | 2090 | 1
COCCN1CCN(C2CCC(c3ccc4[nH]c(-c5cc(OC)c6ncnn6c5)c(C(C)C)c4c3)CC2)CC1 (single isomer, unassigned) [Example 39] | 5.8 | 2230 | 9
COc1cc(-c2[nH]c3ccc(C4CCC(NC5(C)COC5)CC4)cc3c2C(C)C)cn2ncnc12 (single isomer, unassigned) [Example 45] | 3.8 | 1990 | 1
Cc1cc(-c2[nH]c3ccc(C4CCC(NC5(C)COC5)CC4)cc3c2C(C)C)cn2ncnc12 (single isomer, unassigned) [Example 46] | 0.84 | 1510 | 0.1
Cc1cc(-c2[nH]c3ccc(C4CCC(NC5(C)COC5)CC4)cc3c2C(C)C)cn2ncnc12 (single isomer, unassigned) [Example 47] | 7.5 | 4650 | 2
COc1ccc(CNC2CCC(c3ccc4[nH]c(-c5cc(C)nc(C)c5)c(C(C)C)c4c3)CC2)cc1 (single isomer, unassigned) [Example 49] | 22 | 391 | 7
COc1ccc(CNC2CCC(c3ccc4[nH]c(-c5cc(C)nc(C)c5)c(C(C)C)c4c3)CC2)cc1 (single isomer, unassigned) [Example 50] | 149 | 622 | 68
Cc1cc(-c2[nH]c3ccc(C4CCC(N(C)C)CC4)cc3c2C(C)C)cc(C)n1 (single isomer, unassigned) [Example 53] | 2.9 | 600 | 0.55
CNC1CCC(c2ccc3[nH]c(-c4cc(C)c5ncnn5c4)c(C(C)C)c3c2)CC1 (single isomer, unassigned) [Example 56] | 0.81 | 1370 | 0.17

The remaining compounds from weak to strong by IC50 [1], led by results:

IC50 [1] [nM] | IC50 [2] [nM] | IC50 [3] [nM] | Structure (SMILES)
11 | 602 | 4 | CNC1CCC(c2ccc3[nH]c(-c4cc(C)nc(C)c4)c(C(C)C)c3c2)CC1 (single isomer, unassigned) [Example 51]
6.6 | 3100 | 2 | CNC1CCC(c2ccc3[nH]c(-c4cc(C)c5ncnn5c4)c(C(C)C)c3c2)CC1 (single isomer, unassigned) [Example 58]
2.8 | 1760 | 2 | Cc1c(-c2[nH]c3ccc(C4CCC(N5CC(CO)(CO)C5)CC4)cc3c2C(C)C)cn2ncnc2c1C (single isomer, unassigned) [Example 27]
1.8 | 331 | 0.42 | CNC1CCC(c2ccc3[nH]c(-c4cc(C)nc(C)c4)c(C(C)C)c3c2)CC1 (single isomer, unassigned) [Example 52]
1.3 | 1150 | 0.23 | CCN(C)C1CCC(c2ccc3[nH]c(-c4cc(OC)c5ncnn5c4)c(C(C)C)c3c2)CC1 (single isomer, unassigned) [Example 65]
0.76 | 1960 | 0.21 | COc1cc(-c2[nH]c3ccc(C4CCC(NC5(C)COC5)CC4)cc3c2C(C)C)cn2ncnc12 (single isomer, unassigned) [Example 44]
